Measured values published in the OligoGym collection.
Oligonucleotides are given in HELM: sugar(base)linkage, 5' to 3'; d 2'-deoxyribose, r ribose, m 2'-O-methylribose, p phosphate. ss, as = sense and antisense strand
Note: test concentration or dose not given here.

What follows are substances tested against Mmp7 (rat) (assay: reporter assay of Huesken 2005). Conditions: siRNA.
With “RNA1{r(C)p.r(A)p.r(C)p.r(U)p.r(C)p.r(U)p.r(A)p.r(G)p.r(G)p.r(C)p.r(C)p.r(A)p.r(U)p.r(G)p.r(C)p.r(C)p.r(U)p.r(U)p.r(U)p.d(T)p.d(T)}|RNA2{r(A)p.r(A)p.r(A)p.r(G)p.r(G)p.r(C)p.r(A)p.r(U)p.r(G)p.r(G)p.r(C)p.r(C)p.r(U)p.r(A)p.r(G)p.r(A)p.r(G)p.r(U)p.r(G)p.d(T)p.d(T)}$$$RNA1{StrandType:ss}|RNA2{StrandType:as}$” the normalised inhibition (eCFP-eYFP dual reporter) was 101%. “RNA1{r(C)p.r(A)p.r(G)p.r(A)p.r(C)p.r(A)p.r(U)p.r(C)p.r(A)p.r(U)p.r(A)p.r(A)p.r(U)p.r(U)p.r(G)p.r(G)p.r(C)p.r(U)p.r(U)p.d(T)p.d(T)}|RNA2{r(A)p.r(A)p.r(G)p.r(C)p.r(C)p.r(A)p.r(A)p.r(U)p.r(U)p.r(A)p.r(U)p.r(G)p.r(A)p.r(U)p.r(G)p.r(U)p.r(C)p.r(U)p.r(G)p.d(C)p.d(A)}$$$RNA1{StrandType:ss}|RNA2{StrandType:as}$” showed a normalised inhibition (eCFP-eYFP dual reporter) of 103%. “RNA1{r(C)p.r(A)p.r(G)p.r(U)p.r(G)p.r(C)p.r(A)p.r(G)p.r(U)p.r(G)p.r(G)p.r(A)p.r(C)p.r(A)p.r(A)p.r(A)p.r(C)p.r(U)p.r(G)p.d(T)p.d(T)}|RNA2{r(C)p.r(A)p.r(G)p.r(U)p.r(U)p.r(U)p.r(G)p.r(U)p.r(C)p.r(C)p.r(A)p.r(C)p.r(U)p.r(G)p.r(C)p.r(A)p.r(C)p.r(U)p.r(G)p.d(G)p.d(T)}$$$RNA1{StrandType:ss}|RNA2{StrandType:as}$” gave a normalised inhibition (eCFP-eYFP dual reporter) of 100%. For “RNA1{r(C)p.r(A)p.r(U)p.r(A)p.r(A)p.r(U)p.r(U)p.r(G)p.r(G)p.r(C)p.r(U)p.r(U)p.r(C)p.r(G)p.r(C)p.r(A)p.r(A)p.r(G)p.r(G)p.d(T)p.d(T)}|RNA2{r(C)p.r(C)p.r(U)p.r(U)p.r(G)p.r(C)p.r(G)p.r(A)p.r(A)p.r(G)p.r(C)p.r(C)p.r(A)p.r(A)p.r(U)p.r(U)p.r(A)p.r(U)p.r(G)p.d(A)p.d(T)}$$$RNA1{StrandType:ss}|RNA2{StrandType:as}$”, the normalised inhibition (eCFP-eYFP dual reporter) was 63.1%. “RNA1{r(C)p.r(A)p.r(U)p.r(G)p.r(G)p.r(A)p.r(G)p.r(A)p.r(U)p.r(A)p.r(A)p.r(U)p.r(G)p.r(C)p.r(A)p.r(G)p.r(A)p.r(A)p.r(G)p.d(T)p.d(T)}|RNA2{r(C)p.r(U)p.r(U)p.r(C)p.r(U)p.r(G)p.r(C)p.r(A)p.r(U)p.r(U)p.r(A)p.r(U)p.r(C)p.r(U)p.r(C)p.r(C)p.r(A)p.r(U)p.r(G)p.d(A)p.d(C)}$$$RNA1{StrandType:ss}|RNA2{StrandType:as}$” gave a normalised inhibition (eCFP-eYFP dual reporter) of 97.5%. Substance “RNA1{r(C)p.r(C)p.r(A)p.r(G)p.r(G)p.r(A)p.r(A)p.r(A)p.r(C)p.r(A)p.r(C)p.r(U)p.r(C)p.r(U)p.r(A)p.r(G)p.r(G)p.r(C)p.r(C)p.d(T)p.d(T)}|RNA2{r(G)p.r(G)p.r(C)p.r(C)p.r(U)p.r(A)p.r(G)p.r(A)p.r(G)p.r(U)p.r(G)p.r(U)p.r(U)p.r(U)p.r(C)p.r(C)p.r(U)p.r(G)p.r(G)p.d(C)p.d(C)}$$$RNA1{StrandType:ss}|RNA2{StrandType:as}$” has a normalised inhibition (eCFP-eYFP dual reporter) of 33.8%. “RNA1{r(C)p.r(C)p.r(A)p.r(G)p.r(G)p.r(A)p.r(A)p.r(G)p.r(C)p.r(C)p.r(G)p.r(G)p.r(A)p.r(G)p.r(A)p.r(A)p.r(G)p.r(U)p.r(G)p.d(T)p.d(T)}|RNA2{r(C)p.r(A)p.r(C)p.r(U)p.r(U)p.r(C)p.r(U)p.r(C)p.r(C)p.r(G)p.r(G)p.r(C)p.r(U)p.r(U)p.r(C)p.r(C)p.r(U)p.r(G)p.r(G)p.d(G)p.d(A)}$$$RNA1{StrandType:ss}|RNA2{StrandType:as}$” gave a normalised inhibition (eCFP-eYFP dual reporter) of 72.2%. For “RNA1{r(C)p.r(C)p.r(A)p.r(G)p.r(G)p.r(U)p.r(G)p.r(U)p.r(G)p.r(G)p.r(A)p.r(G)p.r(U)p.r(G)p.r(C)p.r(C)p.r(A)p.r(G)p.r(A)p.d(T)p.d(T)}|RNA2{r(U)p.r(C)p.r(U)p.r(G)p.r(G)p.r(C)p.r(A)p.r(C)p.r(U)p.r(C)p.r(C)p.r(A)p.r(C)p.r(A)p.r(C)p.r(C)p.r(U)p.r(G)p.r(G)p.d(G)p.d(C)}$$$RNA1{StrandType:ss}|RNA2{StrandType:as}$”, the normalised inhibition (eCFP-eYFP dual reporter) was 85.6%. With “RNA1{r(C)p.r(C)p.r(C)p.r(A)p.r(G)p.r(G)p.r(A)p.r(A)p.r(G)p.r(C)p.r(C)p.r(G)p.r(G)p.r(A)p.r(G)p.r(A)p.r(A)p.r(G)p.r(U)p.d(T)p.d(T)}|RNA2{r(A)p.r(C)p.r(U)p.r(U)p.r(C)p.r(U)p.r(C)p.r(C)p.r(G)p.r(G)p.r(C)p.r(U)p.r(U)p.r(C)p.r(C)p.r(U)p.r(G)p.r(G)p.r(G)p.d(A)p.d(C)}$$$RNA1{StrandType:ss}|RNA2{StrandType:as}$” the normalised inhibition (eCFP-eYFP dual reporter) was 64.2%. “RNA1{r(C)p.r(C)p.r(C)p.r(A)p.r(G)p.r(G)p.r(U)p.r(G)p.r(U)p.r(G)p.r(G)p.r(A)p.r(G)p.r(U)p.r(G)p.r(C)p.r(C)p.r(A)p.r(G)p.d(T)p.d(T)}|RNA2{r(C)p.r(U)p.r(G)p.r(G)p.r(C)p.r(A)p.r(C)p.r(U)p.r(C)p.r(C)p.r(A)p.r(C)p.r(A)p.r(C)p.r(C)p.r(U)p.r(G)p.r(G)p.r(G)p.d(C)p.d(T)}$$$RNA1{StrandType:ss}|RNA2{StrandType:as}$” showed a normalised inhibition (eCFP-eYFP dual reporter) of 60.7%. “RNA1{r(C)p.r(C)p.r(C)p.r(U)p.r(A)p.r(C)p.r(C)p.r(U)p.r(A)p.r(U)p.r(C)p.r(A)p.r(A)p.r(G)p.r(G)p.r(A)p.r(G)p.r(A)p.r(U)p.d(T)p.d(T)}|RNA2{r(A)p.r(U)p.r(C)p.r(U)p.r(C)p.r(C)p.r(U)p.r(U)p.r(G)p.r(A)p.r(U)p.r(A)p.r(G)p.r(G)p.r(U)p.r(A)p.r(G)p.r(G)p.r(G)p.d(T)p.d(A)}$$$RNA1{StrandType:ss}|RNA2{StrandType:as}$” showed a normalised inhibition (eCFP-eYFP dual reporter) of 102%. For “RNA1{r(C)p.r(C)p.r(G)p.r(C)p.r(A)p.r(C)p.r(U)p.r(U)p.r(C)p.r(A)p.r(G)p.r(U)p.r(G)p.r(G)p.r(G)p.r(A)p.r(A)p.r(C)p.r(A)p.d(T)p.d(T)}|RNA2{r(U)p.r(G)p.r(U)p.r(U)p.r(C)p.r(C)p.r(C)p.r(A)p.r(C)p.r(U)p.r(G)p.r(A)p.r(A)p.r(G)p.r(U)p.r(G)p.r(C)p.r(G)p.r(G)p.d(T)p.d(C)}$$$RNA1{StrandType:ss}|RNA2{StrandType:as}$”, the normalised inhibition (eCFP-eYFP dual reporter) was 91.6%. Work on “RNA1{r(C)p.r(C)p.r(G)p.r(G)p.r(A)p.r(G)p.r(A)p.r(A)p.r(G)p.r(U)p.r(G)p.r(A)p.r(C)p.r(C)p.r(G)p.r(C)p.r(A)p.r(C)p.r(U)p.d(T)p.d(T)}|RNA2{r(A)p.r(G)p.r(U)p.r(G)p.r(C)p.r(G)p.r(G)p.r(U)p.r(C)p.r(A)p.r(C)p.r(U)p.r(U)p.r(C)p.r(U)p.r(C)p.r(C)p.r(G)p.r(G)p.d(C)p.d(T)}$$$RNA1{StrandType:ss}|RNA2{StrandType:as}$” yielded a normalised inhibition (eCFP-eYFP dual reporter) of 94.4%. “RNA1{r(C)p.r(C)p.r(U)p.r(C)p.r(G)p.r(G)p.r(C)p.r(G)p.r(G)p.r(A)p.r(G)p.r(A)p.r(U)p.r(G)p.r(C)p.r(U)p.r(C)p.r(A)p.r(C)p.d(T)p.d(T)}|RNA2{r(G)p.r(U)p.r(G)p.r(A)p.r(G)p.r(C)p.r(A)p.r(U)p.r(C)p.r(U)p.r(C)p.r(C)p.r(G)p.r(C)p.r(C)p.r(G)p.r(A)p.r(G)p.r(G)p.d(C)p.d(C)}$$$RNA1{StrandType:ss}|RNA2{StrandType:as}$” gave a normalised inhibition (eCFP-eYFP dual reporter) of 72.1%. For “RNA1{r(C)p.r(C)p.r(U)p.r(G)p.r(C)p.r(C)p.r(A)p.r(C)p.r(U)p.r(G)p.r(U)p.r(C)p.r(C)p.r(C)p.r(A)p.r(G)p.r(G)p.r(A)p.r(A)p.d(T)p.d(T)}|RNA2{r(U)p.r(U)p.r(C)p.r(C)p.r(U)p.r(G)p.r(G)p.r(G)p.r(A)p.r(C)p.r(A)p.r(G)p.r(U)p.r(G)p.r(G)p.r(C)p.r(A)p.r(G)p.r(G)p.d(G)p.d(C)}$$$RNA1{StrandType:ss}|RNA2{StrandType:as}$”, the normalised inhibition (eCFP-eYFP dual reporter) was 67.9%. “RNA1{r(C)p.r(C)p.r(U)p.r(U)p.r(C)p.r(A)p.r(C)p.r(G)p.r(A)p.r(C)p.r(U)p.r(C)p.r(U)p.r(A)p.r(A)p.r(A)p.r(A)p.r(C)p.r(A)p.d(T)p.d(T)}|RNA2{r(U)p.r(G)p.r(U)p.r(U)p.r(U)p.r(U)p.r(A)p.r(G)p.r(A)p.r(G)p.r(U)p.r(C)p.r(G)p.r(U)p.r(G)p.r(A)p.r(A)p.r(G)p.r(G)p.d(T)p.d(A)}$$$RNA1{StrandType:ss}|RNA2{StrandType:as}$” gave a normalised inhibition (eCFP-eYFP dual reporter) of 126%. “RNA1{r(C)p.r(G)p.r(A)p.r(C)p.r(U)p.r(C)p.r(U)p.r(A)p.r(A)p.r(A)p.r(A)p.r(C)p.r(A)p.r(A)p.r(A)p.r(G)p.r(A)p.r(A)p.r(G)p.d(T)p.d(T)}|RNA2{r(C)p.r(U)p.r(U)p.r(C)p.r(U)p.r(U)p.r(U)p.r(G)p.r(U)p.r(U)p.r(U)p.r(U)p.r(A)p.r(G)p.r(A)p.r(G)p.r(U)p.r(C)p.r(G)p.d(T)p.d(G)}$$$RNA1{StrandType:ss}|RNA2{StrandType:as}$” showed a normalised inhibition (eCFP-eYFP dual reporter) of 113%. Work on “RNA1{r(C)p.r(G)p.r(C)p.r(A)p.r(A)p.r(G)p.r(G)p.r(G)p.r(G)p.r(A)p.r(G)p.r(A)p.r(U)p.r(C)p.r(A)p.r(C)p.r(G)p.r(G)p.r(A)p.d(T)p.d(T)}|RNA2{r(U)p.r(C)p.r(C)p.r(G)p.r(U)p.r(G)p.r(A)p.r(U)p.r(C)p.r(U)p.r(C)p.r(C)p.r(C)p.r(C)p.r(U)p.r(U)p.r(G)p.r(C)p.r(G)p.d(A)p.d(A)}$$$RNA1{StrandType:ss}|RNA2{StrandType:as}$” yielded a normalised inhibition (eCFP-eYFP dual reporter) of 97.3%. “RNA1{r(C)p.r(G)p.r(C)p.r(A)p.r(C)p.r(U)p.r(U)p.r(C)p.r(A)p.r(G)p.r(U)p.r(G)p.r(G)p.r(G)p.r(A)p.r(A)p.r(C)p.r(A)p.r(G)p.d(T)p.d(T)}|RNA2{r(C)p.r(U)p.r(G)p.r(U)p.r(U)p.r(C)p.r(C)p.r(C)p.r(A)p.r(C)p.r(U)p.r(G)p.r(A)p.r(A)p.r(G)p.r(U)p.r(G)p.r(C)p.r(G)p.d(G)p.d(T)}$$$RNA1{StrandType:ss}|RNA2{StrandType:as}$” showed a normalised inhibition (eCFP-eYFP dual reporter) of 91.1%. “RNA1{r(C)p.r(G)p.r(G)p.r(C)p.r(G)p.r(G)p.r(A)p.r(G)p.r(A)p.r(U)p.r(G)p.r(C)p.r(U)p.r(C)p.r(A)p.r(C)p.r(U)p.r(U)p.r(U)p.d(T)p.d(T)}|RNA2{r(A)p.r(A)p.r(A)p.r(G)p.r(U)p.r(G)p.r(A)p.r(G)p.r(C)p.r(A)p.r(U)p.r(C)p.r(U)p.r(C)p.r(C)p.r(G)p.r(C)p.r(C)p.r(G)p.d(A)p.d(G)}$$$RNA1{StrandType:ss}|RNA2{StrandType:as}$” was tested, and the normalised inhibition (eCFP-eYFP dual reporter) was 118%.
